Data on 26 compounds can be found in patent US11111238B2, “Coumarin derivatives, processes for their preparation and uses thereof for the treatment of cancer” (Lead Discovery Center GmbH, priority 2017, dated 2021).

A word on the IC50: it is the concentration that inhibits the measured activity by half.

For experiment [1], the target named is mitochondrial RNA-polymerase (POLRMT) (Mus musculus, UniProt Q8BKF1). In words: Homogeneous TR-FRET assay for mitochondrial transcription activity. The note with it: homogeneous TR-FRET assay according to Example 4; activity class. In kind it is biochemical. The method in brief:
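Mouse POLRMT, TFAM and TFB2M with linearized pUC-LSP template in 10 mM Tris-HCl pH 7.5, 10 mM MgCl2, 40 mM NaCl; compounds at 10 μM or serial dilution, 10 min RT preincubation. Started with 500 μM each […], 2 h RT; 407 bp RNA product detected by hybridized Eu-cryptate/ATTO647N probe TR-FRET (ex 340, em 665 nm).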
Background: TR-FRET usually uses a lanthanide donor and a delayed reading to cut background.

Experiment [2] has as its system mitochondrial transcription (7S RNA) in HeLa cells. In words: Quantitative real time-PCR assay of inhibition of mitochondrial transcription (cellular qPCR assay IMT). In kind it is cell-based. The following applies: Homo sapiens, 4 h compound incubation, qRT-PCR according to Example 5, activity class. Here is the method: Quantitative real-time PCR (qRT-PCR), based on the TagMan™ (Thermo Fisher Scientific, Waltham Mass.) technology, was carried out essentially as described in (Heid et al., 1996). HeLa cells were plated one day before compound treatment in RPMI medium supplemented with 10% Fetal Calf Serum and 2 mM L-glutamine. Cells were incubated with dilution series of compounds or vehicle (DMSO) for 4 h, prior to harvest and extraction of the RNA using the RNeasy Mini Kit (Qiagen, Hilden D), according to the manufacturer's instructions. RNA concentrations were measured spectroscopically, using a NanoDrop-2000 (Thermo Fisher Scientific, Waltham Mass.) and normalized prior to cDNA synthesis, using a ‘High-Capacity cDNA Reverse Transcription Kit’ (Thermo Fisher Scientific, Waltham Mass.). qRT-PCR was carried out using the ‘TaqMan Fast Advance Master Mix’ (Thermo Fisher Scientific, Waltham Mass.) on a 7500 Fast Real-Time PCR machine (Applied Biosystems, Foster City Calif.)
For these measurements, three genes were used to compare the effect of the scrutinized compounds in relation to their concentration. The POLRMT-gene was used to detect potential influences on nuclear transcription. Mitochondrial transcription in vivo was monitored by measurements 7S RNA. The TBP (TATA-box binding protein) gene was employed as the control (housekeeping gene) during qRT-PCR. The short-lived mitochondrial 7S RNA, which is not post-transcriptionally stabilized, allowed us to monitor rapid changes in mitochondrial transcription activity following compound addition. Biological triplicates were analyzed using the comparative CT Method (ΔΔCt) method (Bubner and Baldwin, 2004) and reported as Rq % values (Rq=Relative quantification=2-ΔΔCt).
Background: Quantitative PCR measures a nucleic acid by following its amplification.

Chain of mitochondrial RNA-polymerase (POLRMT) (Q8BKF1 42-1207): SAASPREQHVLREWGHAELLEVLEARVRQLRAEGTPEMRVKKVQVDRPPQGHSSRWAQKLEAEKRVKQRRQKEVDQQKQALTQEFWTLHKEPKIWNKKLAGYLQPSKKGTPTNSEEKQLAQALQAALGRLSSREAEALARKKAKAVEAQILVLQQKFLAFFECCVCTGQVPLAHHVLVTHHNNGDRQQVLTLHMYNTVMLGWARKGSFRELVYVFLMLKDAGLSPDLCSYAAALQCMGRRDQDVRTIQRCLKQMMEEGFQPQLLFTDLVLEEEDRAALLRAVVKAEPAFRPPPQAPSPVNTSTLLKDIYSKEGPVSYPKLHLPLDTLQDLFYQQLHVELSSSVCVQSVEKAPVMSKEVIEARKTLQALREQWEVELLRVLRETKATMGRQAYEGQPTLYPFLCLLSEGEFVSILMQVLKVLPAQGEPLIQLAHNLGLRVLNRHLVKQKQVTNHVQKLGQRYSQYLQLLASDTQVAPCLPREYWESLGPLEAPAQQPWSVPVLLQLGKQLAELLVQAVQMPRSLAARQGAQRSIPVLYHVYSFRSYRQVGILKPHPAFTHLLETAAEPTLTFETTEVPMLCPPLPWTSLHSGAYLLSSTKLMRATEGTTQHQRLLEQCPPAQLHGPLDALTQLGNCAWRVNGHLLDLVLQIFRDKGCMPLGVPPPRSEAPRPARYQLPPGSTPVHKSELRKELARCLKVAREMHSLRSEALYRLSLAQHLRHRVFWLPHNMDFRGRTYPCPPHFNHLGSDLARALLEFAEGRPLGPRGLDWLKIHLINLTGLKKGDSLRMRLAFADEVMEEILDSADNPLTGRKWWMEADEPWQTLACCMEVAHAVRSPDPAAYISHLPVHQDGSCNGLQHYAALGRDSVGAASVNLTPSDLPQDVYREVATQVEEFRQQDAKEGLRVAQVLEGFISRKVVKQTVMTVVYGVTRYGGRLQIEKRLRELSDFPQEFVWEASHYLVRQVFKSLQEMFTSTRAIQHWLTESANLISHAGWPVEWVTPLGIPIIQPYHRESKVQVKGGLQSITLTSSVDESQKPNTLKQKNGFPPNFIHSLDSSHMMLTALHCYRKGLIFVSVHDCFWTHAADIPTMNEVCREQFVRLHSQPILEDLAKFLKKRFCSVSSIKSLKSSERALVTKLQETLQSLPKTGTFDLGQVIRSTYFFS

For `COC(=O)CC1CCN(C(=O)C(C)Oc2ccc3c(-c4ccccc4Cl)cc(=O)oc3c2)CC1` (stereo not shown) [Compound 80, methyl 2-[1-[2-[4-(2-chlorophenyl)-2-oxo-chromen-7-yl]oxypropanoyl]-4-piperidyl]acetate], the values for the half-inhibitory concentration (IC50) in experiment [1] and in experiment [2] were 20 to 100 nM and 50 to 500 nM, respectively.

As for `CCOC(=O)CC1CCCN(C(=O)C(C)Oc2ccc3c(-c4ccccc4Cl)cc(=O)oc3c2)C1` (stereo not shown) [Compound 86, ethyl 2-[1-[2-[4-(2-chlorophenyl)-2-oxo-chromen-7-yl]oxypropanoyl]-3-piperidyl]acetate], the half-inhibitory concentration (IC50) is 20 to 100 nM in experiment [1] and 10 to 50 nM in experiment [2].

For `Cc1ccsc1-c1cc(=O)oc2cc(O[C@H](C)C(=O)NC(C)C)ccc12` [Compound 178, (2R)-N-isopropyl-2-[4-(3-methyl-2-thienyl)-2-oxo-chromen-7-yl]oxy-propanamide], the IC50 in experiment [1] fell in the range of 100 to 1000 nM; in experiment [2], 10 to 50 nM.

In the case of `CCC(=O)N1CCN(C(=O)[C@@H](C)Oc2ccc3c(-c4ccc(F)cc4Cl)cc(=O)oc3c2)CC1` [Compound 168, 4-(2-chloro-4-fluoro-phenyl)-7-[(1R)-1-methyl-2-oxo-2-(4-propanoylpiperazin-1-yl)ethoxy]chromen-2-one], the IC50 in experiment [1] was < 20 nM; in experiment [2], < 10 nM.

In the case of `CC(C)OC(=O)C(C)Oc1ccc2c(-c3ccccc3Br)cc(=O)oc2c1` (stereo not shown) [Compound 92, isopropyl 2-[4-(2-bromophenyl)-2-oxo-chromen-7-yl]oxypropanoate], the values for the 50% inhibitory concentration (IC50) in experiment [1] and in experiment [2] were 20 to 100 nM and < 10 nM, respectively.

In the case of `CCNC(=O)C(C)Oc1ccc2c(-c3ccccc3Cl)cc(=O)oc2c1` (stereo not shown) [Compound 98, 2-[4-(2-chlorophenyl)-2-oxo-chromen-7-yl]oxy-N-ethyl-propanamide], the IC50 in experiment [1] is 100 to 1000 nM; in experiment [2] it was < 10 nM.

With `CNC(=O)C[C@H]1CCCN(C(=O)[C@@H](C)Oc2ccc3c(-c4ccc(F)cc4Cl)cc(=O)oc3c2)C1` [Compound 128, 2-[(3R)-1-[(2R)-2-[4-(2-chloro-4-fluoro-phenyl)-2-oxo-chromen-7-yl]oxypropanoyl]-3-piperidyl]-N-methyl-acetamide], the half-inhibitory concentration (IC50) in experiment [1] was < 20 nM; in experiment [2] it was < 10 nM.

As for `CCNC(=O)C(C)Oc1ccc2c(-c3ccc(F)cc3Cl)cc(=O)oc2c1` (stereo not shown) [Compound 91, 2-[4-(2-chloro-4-fluoro-phenyl)-2-oxo-chromen-7-yl]oxy-N-ethyl-propanamide], the half-maximal inhibitory concentration (IC50) in experiment [1] is 20 to 100 nM; in experiment [2], < 10 nM.

For the compound `CC(C)OC(=O)C[C@H]1CCCN(C(=O)[C@@H](C)Oc2ccc3c(-c4ccc(F)cc4Cl)cc(=O)oc3c2)C1` [Compound 123, isopropyl 2-[(3R)-1-[(2R)-2-[4-(2-chloro-4-fluoro-phenyl)-2-oxo-chromen-7-yl]oxypropanoyl]-3-piperidyl]acetate], the figures for the concentration for half-maximal inhibition (IC50) in experiment [1] and in experiment [2] were 20 to 100 nM and < 10 nM, respectively.

Take `C[C@@H](Oc1ccc2c(-c3ccc(F)cc3Cl)cc(=O)oc2c1)C(=O)N1CCC[C@H](NC(=O)CCl)C1` [Compound 167, 2-chloro-N-[(3S)-1-[(2R)-2-[4-(2-chloro-4-fluoro-phenyl)-2-oxo-chromen-7-yl]oxypropanoyl]-3-piperidyl]acetamide]: the half-maximal inhibitory concentration (IC50) in experiment [1] is < 20 nM; in experiment [2], < 10 nM.

Take `C[C@@H](Oc1ccc2c(-c3ccc(F)cc3Cl)cc(=O)oc2c1)C(=O)N1CCN(C(=O)CCl)CC1` [Compound 166, (R)-4-(2-chloro-4-fluorophenyl)-7-((1-(4-(2-chloroacetyl)piperazin-1-yl)-1-oxopropan-2-yl)oxy)-2H-chromen-2-one]: the IC50 in experiment [1] is < 20 nM; in experiment [2], < 10 nM.

With `COC(=O)c1cccc(NC(=O)[C@@H](C)Oc2ccc3c(-c4ccc(F)cc4Cl)cc(=O)oc3c2)n1` [Compound 149, methyl 6-[[(2R)-2-[4-(2-chloro-4-fluoro-phenyl)-2-oxo-chromen-7-yl]oxypropanoyl]amino]pyridine-2-carboxylate], the IC50 fell in the range of 20 to 100 nM in experiment [1] and 50 to 500 nM in experiment [2].

Take `CC(C)NC(=O)[C@@H](C)Oc1ccc2c(-c3ccccc3Cl)cc(=O)oc2c1` [Compound 56, (2R)-2-[4-(2-chlorophenyl)-2-oxo-chromen-7-yl]oxy-N-isopropyl-propanamide]: the concentration for half-maximal inhibition (IC50) is 20 to 100 nM in experiment [1] and < 10 nM in experiment [2].

With `CC(Oc1ccc2c(-c3ccccc3Cl)cc(=O)oc2c1)C(=O)N1CCCC(S(C)(=N)=O)C1` (stereo not shown) [Compound 79, 4-(2-chlorophenyl)-7-[1-methyl-2-[3-(methylsulfonimidoyl)-1-piperidyl]-2-oxo-ethoxy]chromen-2-one], the figures for the IC50 in experiment [1] and in experiment [2] were 20 to 100 nM and < 10 nM, respectively.

On to `Cc1ccccc1-c1cc(=O)oc2cc(OC(C)C(=O)NC3CC3)ccc12` (stereo not shown) [Compound 25, N-cyclopropyl-2-[4-(o-tolyl)-2-oxo-chromen-7-yl]oxy-propanamide], for which the IC50 is < 20 nM in experiment [1] and < 10 nM in experiment [2].

For the compound `CC(Oc1ccc2c(-c3ccccc3Cl)cc(=O)oc2c1)C(=O)N1CCCCC1` (stereo not shown) [Compound 2, 4-(2-chlorophenyl)-7-[1-methyl-2-oxo-2-(1-piperidyl)ethoxy]chromen-2-one], the IC50 in experiment [1] is < 20 nM; in experiment [2], < 10 nM.

For `CC(Oc1ccc2c(-c3ccc(F)cc3Cl)cc(=O)oc2c1)C(=O)N1CCCC(S(N)(=O)=O)C1` (stereo not shown) [Compound 69, 1-[2-[4-(2-chloro-4-fluoro-phenyl)-2-oxo-chromen-7-yl]oxypropanoyl]piperidine-3-sulfonamide], the IC50 is 20 to 100 nM in experiment [1] and < 10 nM in experiment [2].

In the case of `Cc1ccccc1-c1cc(=O)oc2cc(OC(C)C(=O)N3CCCC(S(N)(=O)=O)C3)ccc12` (stereo not shown) [Compound 12, 1-[2-[4-(o-tolyl)-2-oxo-chromen-7-yl]oxypropanoyl]piperidine-3-sulfonamide], the 50% inhibitory concentration (IC50) in experiment [1] was < 20 nM; in experiment [2], < 10 nM.

Consider `CCOC(=O)C(C)Oc1ccc2c(-c3ccccc3Br)cc(=O)oc2c1` (stereo not shown) [Compound 81, ethyl 2-[4-(2-bromophenyl)-2-oxo-chromen-7-yl]oxypropanoate], for which the IC50 in experiment [1] was in the range of 20 to 100 nM; in experiment [2] it was 10 to 50 nM.

On to `CCCCCCCOC(=O)[C@H]1CCCN(C(=O)[C@@H](C)Oc2ccc3c(-c4ccc(F)cc4Cl)cc(=O)oc3c2)C1` [Compound 120, heptyl (3S)-1-[(2R)-2-[4-(2-chloro-4-fluoro-phenyl)-2-oxo-chromen-7-yl]oxypropanoyl] piperidine-3-carboxylate], for which the IC50 was 100 to 1000 nM in experiment [1] and < 10 nM in experiment [2].

Consider `Cc1ccccc1-c1cc(=O)oc2cc(O[C@H](C)C(=O)N3CCC[C@H](C(=O)O)C3)ccc12` [Compound 27, (3S)-1-[(2R)-2-[4-(o-tolyl)-2-oxo-chromen-7-yl]oxypropanoyl]piperidine-3-carboxylic acid], for which the IC50 in experiment [1] is < 20 nM; in experiment [2], < 10 nM.

For the compound `CNC(=O)[C@H]1CCCN(C(=O)[C@@H](C)Oc2ccc3c(-c4ccc(F)cc4Cl)cc(=O)oc3c2)C1` [Compound 122], the IC50 in experiment [1] is 20 to 100 nM; in experiment [2] it was < 10 nM.

On to `Cc1ccsc1-c1cc(=O)oc2cc(O[C@H](C)C(=O)N3CCC[C@H](CC(=O)O)C3)ccc12` [Compound 181, 2-[(3R)-1-[(2R)-2-[4-(3-methyl-2-thienyl)-2-oxo-chromen-7-yl]oxypropanoyl]-3-piperidyl]acetic acid], for which the IC50 lay within 20 to 100 nM in experiment [1] and 10 to 50 nM in experiment [2].

Consider `C[C@@H](Oc1ccc2c(-c3ccccc3Cl)cc(=O)oc2n1)C(=O)N1CCC[C@H](C(=O)O)C1` [Compound 172, (3S)-1-[(2R)-2-[4-(2-chlorophenyl)-2-oxo-pyrano[2,3-b]pyridin-7-yl]oxypropanoyl]piperidine-3-carboxylic acid], for which the IC50 fell in the range of 20 to 100 nM in experiment [1] and 50 to 500 nM in experiment [2].

For the compound `CC(Oc1ccc2c(-c3ccccc3Cl)cc(=O)oc2n1)C(=O)N1CCC[C@H](C(=O)O)C1` (mixture of isomers) [Compound 170, rac-(3S)-1-[2-[4-(2-chlorophenyl)-2-oxo-pyrano[2,3-b]pyridin-7-yl]oxypropanoyl]piperidine-3-carboxylic acid], the 50% inhibitory concentration (IC50) in experiment [1] lay in the range of 20 to 100 nM; in experiment [2], 50 to 500 nM.

On to `C[C@@H](Oc1ccc2c(-c3ccc(F)cc3Cl)cc(=O)oc2c1)C(=O)Nc1ccc(C(=O)O)cc1` [Compound 141, 4-[[(2R)-2-[4-(2-chloro-4-fluoro-phenyl)-2-oxo-chromen-7-yl]oxypropanoyl]amino]benzoic acid], for which the results for the IC50 in experiment [1] and in experiment [2] were < 20 nM and 50 to 500 nM, respectively.
